Literature values as cited in patent US9884017B2, “Foamable vehicles and pharmaceutical compositions comprising aprotic polar solvents and uses thereof” (Foamix Pharmaceuticals Ltd., priority 2009, dated 2018).

Conditions: 25° C.

For `C[S+](C)[O-]` [DMSO, Dimethyl sulfoxide], the Dielectric constant is listed as 46.4 and the Polarity is listed as 4.3 Debye.

In the case of `CN(C)C=O` [DMF, dimethylformamide], the Dielectric constant is listed as 36.7 and the Polarity is listed as 3.8 Debye.
